# From US11000601B2, “Conjugated biological molecules, pharmaceutical compositions and methods” (OBI Pharma, Inc., priority 2016, dated 2021)
# Where “and” joins values, the source holds several entries; their conditions need not be identical. Equal values may be shown once. Square brackets hold non-standard residues; d marks the D form. Peptide text beside a SMILES is read from it. * marks the point of attachment. Dolaproine = CO[C@@H]([C@@H]1CCCN1)[C@@H](C)C(=O)O; Dil = CC[C@H](C)[C@H](NC)[C@@H](CC(=O)O)OC; X1 = C[C@@H](N*)[C@@H](O)c1ccccc1; NMeV = CN[C@H](C(=O)O)C(C)C
# Legend:
# [1] = Body weight in male BALB/c nude mice bearing HPAC established tumors; conditions: QW x 4, MMAE 0.191 mg/kg IP; for Body Weight (g), Mean: group mean; for Body Weight (g), Mean / Body Weight: ADC (OBI-999) and OBI-888 10 mg/kg IV; for Body Weight: individual animals
# Procedure: Male nu/nu nude, aged 6-8 weeks, were obtained from Shanghai Lingchang and used. The mice were kept in individual ventilation cages at constant temperature and humidity with four animals in each cage (temperature: 20-26° C. and humidity: 40-70%). The cages were made of polycarbonate and the size was 300 mm×200 mm×180 mm. The bedding material was corn cob, which was changed twice per week. Animals had free access to irradiation sterilized dry granule food and drinking water during the entire study period. The identification labels for each cage contained the following information: number of animals, sex, strain, date received, treatment, study number, group number and the starting date of the treatment.
# [2] = tested on: MCF-7 (ATCC HTB-22) human breast adenocarcinoma; experiment: Xenograft tumor model of human breast adenocarcinoma MCF-7 in nude mice: tumor volume, T/C; type: in vivo; conditions: for Tumor Volume, individual mouse: mice No. 1-6
# Procedure: In a xenograft tumor model of human breast adenocarcinoma, MCF-7 (ATCC HTB-22) cells were subcutaneously (SC) implanted (2.0×10^7 cells in 1:1 matrigel/media mixture at 0.2 mL/mouse) into the right flank of female athymic (nu/nu) nude mice. Supplemental injections of estradiol cyclopentyl propionate (100 μg/mouse) were administered subcutaneously between the scapulae twice weekly, from one week prior to cell implantation to study completion. Tumor-implanted mice were divided into eleven treatment groups, each group containing six animals, and test agent administrations were initiated one day after cell implantation (denoted as Day 1). 3.1 Test Substances and Dosing Pattern
# Two control groups received intravenous injections of vehicle (25 mM Sodium Citrate, pH 6.5+100 mM NaCl) once weekly for either six weeks (group 1) or two weeks (group 2).
# Human breast adenocarcinoma tumor cell line, MCF-7 (ATCC HTB-22, breast adenocarcinoma), was provided by the Sponsor. The tumor cells were prepared and cultured by the Sponsor (1×10^8 cells/mL), and 0.2 mL MCF-7 tumor cell inoculum containing 2×10^7 cells (mixture of matrigel and medium; 1:1) was implanted subcutaneously in the right flank of each mouse.
# Female (nu/nu) nude mice aged 6-7 weeks obtained from BioLasco Taiwan (under Charles River Laboratories Licensee) were used. The animals were housed in individually ventilated cages (IVG, 36 Mini Isolator System). The allocation for 3-5 animals was 27×20×14 in cm. All animals were maintained in a hygienic environment under controlled temperature (20-24° C.) and humidity (30-70%) with 12-hour light/dark cycle. Free access to standard lab diet (Oriental Yeast Co., Ltd., Japan) and autoclaved tap water were granted. All aspects of this work including housing, experimentation, and animal disposal were performed in general accordance with the “Guide for the Care and Use of Laboratory Animals: Eighth Edition” (National Academies Press, Washington, D.C., 2011) in our AAALAC-accredited laboratory animal facility. In addition, the animal care and use protocol was reviewed and approved by the IACUC at Eurofins Panlabs Taiwan, Ltd.
# The tumor volumes, body weights, mortality, and signs of overt toxicity were monitored and recorded twice weekly for 77 days. Tumor volume (mm^3) was calculated according to the formula for a prolate ellipsoid: length (mm)×[width (mm)]^2×0.5. Tumor growth inhibition was calculated as T/C (treatment/control)×100%. A T/C value≤42% was considered significant anti-tumor activity. Two-way ANOVA followed by Bonferroni test was used to ascertain the statistical significance of groups compared to respective vehicle control (*p<0.05).
# [3] = 0.057 mg/kg × 6, IV, once weekly, Day 1
# [4] = 0.057 mg/kg × 6, IV, once weekly, Day 5
# [5] = 0.057 mg/kg × 6, IV, once weekly, Day 8
# [6] = 0.057 mg/kg × 6, IV, once weekly, Day 12
# [7] = 0.057 mg/kg × 6, IV, once weekly, Day 15
# [8] = 0.057 mg/kg × 6, IV, once weekly, Day 19
# [9] = 0.057 mg/kg × 6, IV, once weekly, Day 22
# [10] = 0.057 mg/kg × 6, IV, once weekly, Day 26
# [11] = 0.057 mg/kg × 6 IV once weekly, Day 29
# [12] = 0.057 mg/kg × 6 IV once weekly, Day 33
# [13] = 0.057 mg/kg × 6 IV once weekly, Day 36
# [14] = 0.057 mg/kg × 6 IV once weekly, Day 40
# [15] = 0.057 mg/kg × 6 IV once weekly, Day 43
# [16] = 0.057 mg/kg × 6 IV once weekly, Day 46
# [17] = 0.057 mg/kg × 6 IV once weekly, Day 49
# [18] = Gr. 11, 0.057 mg/kg × 6, IV, once weekly, Day 53
# [19] = Gr. 11, 0.057 mg/kg × 6, IV, once weekly, Day 56
# [20] = Gr. 11, 0.057 mg/kg × 6, IV, once weekly, Day 60
# [21] = Gr. 11, 0.057 mg/kg × 6, IV, once weekly, Day 63
# [22] = Gr. 11, 0.057 mg/kg × 6, IV, once weekly, Day 67
# [23] = Gr. 11, 0.057 mg/kg × 6, IV, once weekly, Day 70
# [24] = Gr. 11, 0.057 mg/kg × 6, IV, once weekly, Day 74
# [25] = Gr. 11, 0.057 mg/kg × 6, IV, once weekly, Day 77
smiles,measurement,setting,value
"CC[C@H](C)[C@@H]([C@@H](CC(=O)N1CCC[C@H]1[C@H](OC)[C@@H](C)C(=O)N[C@H](C)[C@@H](O)c1ccccc1)OC)N(C)C(=O)[C@@H](NC(=O)[C@@H](NC)C(C)C)C(C)C [MMAE, monomethyl auristatin E] (H-[NMeV]V[Dil][Dolaproine]-X1)","Body Weight (g), Mean",[1]; Day 0,24.2 g
same,Body Weight,[1]; Day 0,25.4 g and 24.2 g and 23.3 g and 24.0 g and 22.7 g
same,"Body Weight (g), Mean",[1]; Day 3,22.1 g
same,Body Weight,[1]; Day 3,21.8 g and 22.4 g and 21.5 g and 21.6 g (2×) and 24.0 g and 20.7 g and 23.1 g
same,"Body Weight (g), Mean",[1]; Day 4,21.9 g
same,Body Weight,[1]; Day 4,21.0 g and 21.3 g and 20.5 g and 22.0 g and 19.6 g and 22.1 g
same,"Body Weight (g), Mean",[1]; Day 7,23.6 g
same,Body Weight,[1]; Day 7,18.8 g and 25.1 g and 27.0 g and 21.7 g and 23.8 g
same,Body Weight,[1]; Day 9,22.2 g
same,Body Weight,[1]; Day 10,26.0 g
same,Body Weight,[1]; Day 14,24.4 g and 26.0 g
same,Body Weight,[1]; Day 17,23.9 g and 26.0 g and 23.6 g
same,Body Weight,[1]; Day 21,23.8 g
same,"Body Weight (g), Mean",[1]; Day 28,25.4 g
same,Body Weight,[1]; Day 31,25.0 g and 25.4 g
same,"Body Weight (g), Mean",[1]; Day 35,26.0 g
same,Body Weight,[1]; Day 35,27.2 g
same,Body Weight,[1]; Day 37,26.7 g and 24.0 g
same,Animal status (Died / Euthanized),"[1]; individual animal, OBI-888 10 mg/kg IV",Died and Euthanized
same,anti-tumor activity (in words),"[2]; 0.057 mg/kg IV once weekly for six weeks, during and for a short time after the dosing phase",modest-to-moderate anti-tumor activity
same,% T/C,[2]; [3],101%
same,"Tumor Volume, Mean",[2]; [3],161 mm^3
same,"Tumor Volume, single mouse (No. 1-6)",[2]; [3],141 mm^3 and 139 mm^3 and 162 mm^3 and 186 mm^3 and 152 mm^3 and 188 mm^3
same,% T/C,[2]; [4],97%
same,"Tumor Volume, Mean",[2]; [4],119 mm^3
same,"Tumor Volume, single mouse (No. 1-6)",[2]; [4],110 mm^3 and 123 mm^3 and 145 mm^3 and 104 mm^3 and 106 mm^3 and 128 mm^3
same,% T/C,[2]; [5],96%
same,"Tumor Volume, Mean",[2]; [5],132 mm^3
same,"Tumor Volume, single mouse (No. 1-6)",[2]; [5],121 mm^3 and 125 mm^3 and 139 mm^3 and 131 mm^3 (2×) and 146 mm^3
same,% T/C,[2]; [6],71%
same,"Tumor Volume, Mean",[2]; [6],114 mm^3
same,"Tumor Volume, single mouse (No. 1-6)",[2]; [6],101 mm^3 and 104 mm^3 and 133 mm^3 and 115 mm^3 and 103 mm^3 and 129 mm^3
same,% T/C,[2]; [7],72%
same,"Tumor Volume, Mean",[2]; [7],116 mm^3
same,"Tumor Volume, single mouse (No. 1-6)",[2]; [7],102 mm^3 and 101 mm^3 and 127 mm^3 and 105 mm^3 and 137 mm^3 and 121 mm^3
same,% T/C,[2]; [8],64%
same,"Tumor Volume, Mean",[2]; [8],130 mm^3
same,"Tumor Volume, single mouse (No. 1-6)",[2]; [8],137 mm^3 and 113 mm^3 and 125 mm^3 and 121 mm^3 and 148 mm^3 and 135 mm^3
same,% T/C,[2]; [9],61%
same,"Tumor Volume, Mean",[2]; [9],140 mm^3
same,"Tumor Volume, single mouse (No. 1-6)",[2]; [9],123 mm^3 and 137 mm^3 (2×) and 138 mm^3 and 164 mm^3 and 143 mm^3
same,% T/C,[2]; [10],54%
same,"Tumor Volume, Mean",[2]; [10],143 mm^3
same,"Tumor Volume, single mouse (No. 1-6)",[2]; [10],135 mm^3 and 127 mm^3 and 119 mm^3 and 154 mm^3 and 179 mm^3 and 144 mm^3
same,% T/C,[2]; [11],54%
same,"Tumor Volume, Mean","[2]; 0.057 mg/kg × 6 IV once weekly, Day 29, group mean",151 mm^3
same,"Tumor Volume, individual mouse",[2]; [11],146 mm^3 and 131 mm^3 and 119 mm^3 and 156 mm^3 and 194 mm^3 and 160 mm^3
same,% T/C,[2]; [12],55%
same,"Tumor Volume, Mean","[2]; 0.057 mg/kg × 6 IV once weekly, Day 33, group mean",168 mm^3
same,"Tumor Volume, individual mouse",[2]; [12],162 mm^3 and 152 mm^3 and 133 mm^3 and 168 mm^3 and 216 mm^3 and 177 mm^3
same,% T/C,[2]; [13],59%
same,"Tumor Volume, Mean","[2]; 0.057 mg/kg × 6 IV once weekly, Day 36, group mean",192 mm^3
same,"Tumor Volume, individual mouse",[2]; [13],171 mm^3 and 154 mm^3 and 152 mm^3 and 201 mm^3 and 256 mm^3 and 218 mm^3
same,% T/C,[2]; [14],61%
same,"Tumor Volume, Mean","[2]; 0.057 mg/kg × 6 IV once weekly, Day 40, group mean",210 mm^3
same,"Tumor Volume, individual mouse",[2]; [14],184 mm^3 and 186 mm^3 and 156 mm^3 and 223 mm^3 and 285 mm^3 and 226 mm^3
same,% T/C,[2]; [15],63%
same,"Tumor Volume, Mean","[2]; 0.057 mg/kg × 6 IV once weekly, Day 43, group mean",232 mm^3
same,"Tumor Volume, individual mouse",[2]; [15],186 mm^3 (2×) and 239 mm^3 and 242 mm^3 and 296 mm^3 and 240 mm^3
same,% T/C,[2]; [16],65%
same,"Tumor Volume, Mean","[2]; 0.057 mg/kg × 6 IV once weekly, Day 46, group mean",256 mm^3
same,"Tumor Volume, individual mouse",[2]; [16],204 mm^3 and 261 mm^3 and 222 mm^3 and 258 mm^3 and 332 mm^3 and 259 mm^3
same,% T/C,[2]; [17],64%
same,"Tumor Volume, Mean","[2]; 0.057 mg/kg × 6 IV once weekly, Day 49, group mean",272 mm^3
same,"Tumor Volume, individual mouse",[2]; [17],210 mm^3 and 270 mm^3 and 235 mm^3 and 301 mm^3 and 351 mm^3 and 264 mm^3
same,"% T/C (tumor volume, treatment/control)",[2]; [18],64%
same,"Tumor Volume, Mean",[2]; [18],290 mm^3
same,"Tumor Volume, individual animals No. 1-6",[2]; [18],216 mm^3 and 291 mm^3 and 268 mm^3 and 319 mm^3 and 373 mm^3 and 270 mm^3
same,"% T/C (tumor volume, treatment/control)",[2]; [19],65%
same,"Tumor Volume, Mean",[2]; [19],323 mm^3
same,"Tumor Volume, individual animals No. 1-6",[2]; [19],305 mm^3 and 249 mm^3 and 325 mm^3 and 329 mm^3 and 399 mm^3 and 328 mm^3
same,"% T/C (tumor volume, treatment/control)",[2]; [20],65%
same,"Tumor Volume, Mean",[2]; [20],357 mm^3
same,"Tumor Volume, individual animals No. 1-6",[2]; [20],312 mm^3 and 262 mm^3 and 383 mm^3 and 373 mm^3 and 453 mm^3 and 358 mm^3
same,"% T/C (tumor volume, treatment/control)",[2]; [21],71%
same,"Tumor Volume, Mean",[2]; [21],421 mm^3
same,"Tumor Volume, individual animals No. 1-6",[2]; [21],286 mm^3 and 422 mm^3 and 494 mm^3 and 418 mm^3 and 496 mm^3 and 412 mm^3
same,"% T/C (tumor volume, treatment/control)",[2]; [22],71%
same,"Tumor Volume, Mean",[2]; [22],469 mm^3
same,"Tumor Volume, individual animals No. 1-6",[2]; [22],307 mm^3 and 458 mm^3 and 598 mm^3 and 455 mm^3 and 505 mm^3 and 489 mm^3
same,"% T/C (tumor volume, treatment/control)",[2]; [23],73%
same,"Tumor Volume, Mean",[2]; [23],512 mm^3
same,"Tumor Volume, individual animals No. 1-6",[2]; [23],333 mm^3 and 591 mm^3 and 603 mm^3 and 493 mm^3 and 523 mm^3 and 528 mm^3
same,"% T/C (tumor volume, treatment/control)",[2]; [24],79%
same,"Tumor Volume, Mean",[2]; [24],584 mm^3
same,"Tumor Volume, individual animals No. 1-6",[2]; [24],365 mm^3 and 625 mm^3 and 681 mm^3 and 570 mm^3 and 568 mm^3 and 695 mm^3
same,"% T/C (tumor volume, treatment/control)",[2]; [25],83%
same,"Tumor Volume, Mean",[2]; [25],736 mm^3
same,"Tumor Volume, individual animals No. 1-6",[2]; [25],410 mm^3 and 922 mm^3 and 760 mm^3 and 632 mm^3 and 807 mm^3 and 887 mm^3
